Data as given in patent publication EP4813991A1 (iLeadBMS Co., Ltd., priority 2023, dated 2025).
Read-outs that look alike come from different tables or passages of the source.

Tests used:
CDK12 [1] = biological target: T1, CDK12 (Homo sapiens, UniProt Q9NYV4); experiment: Cellular CDK12 inhibitory activity assay (Ser2 phosphorylation of RNA polymerase II subunit B1 CTD in MDA-MB-231 cells); format: cell-based; parameters: using MDA-MB-231 breast cancer cells; endogenous in cells; host or cells: MDA-MB-231; conditions: MDA-MB-231 cells, 6 hours treatment; read-out: pRpbl CTD S2 IC50
T1 sequence (Q9NYV4 whole entry, species assumed): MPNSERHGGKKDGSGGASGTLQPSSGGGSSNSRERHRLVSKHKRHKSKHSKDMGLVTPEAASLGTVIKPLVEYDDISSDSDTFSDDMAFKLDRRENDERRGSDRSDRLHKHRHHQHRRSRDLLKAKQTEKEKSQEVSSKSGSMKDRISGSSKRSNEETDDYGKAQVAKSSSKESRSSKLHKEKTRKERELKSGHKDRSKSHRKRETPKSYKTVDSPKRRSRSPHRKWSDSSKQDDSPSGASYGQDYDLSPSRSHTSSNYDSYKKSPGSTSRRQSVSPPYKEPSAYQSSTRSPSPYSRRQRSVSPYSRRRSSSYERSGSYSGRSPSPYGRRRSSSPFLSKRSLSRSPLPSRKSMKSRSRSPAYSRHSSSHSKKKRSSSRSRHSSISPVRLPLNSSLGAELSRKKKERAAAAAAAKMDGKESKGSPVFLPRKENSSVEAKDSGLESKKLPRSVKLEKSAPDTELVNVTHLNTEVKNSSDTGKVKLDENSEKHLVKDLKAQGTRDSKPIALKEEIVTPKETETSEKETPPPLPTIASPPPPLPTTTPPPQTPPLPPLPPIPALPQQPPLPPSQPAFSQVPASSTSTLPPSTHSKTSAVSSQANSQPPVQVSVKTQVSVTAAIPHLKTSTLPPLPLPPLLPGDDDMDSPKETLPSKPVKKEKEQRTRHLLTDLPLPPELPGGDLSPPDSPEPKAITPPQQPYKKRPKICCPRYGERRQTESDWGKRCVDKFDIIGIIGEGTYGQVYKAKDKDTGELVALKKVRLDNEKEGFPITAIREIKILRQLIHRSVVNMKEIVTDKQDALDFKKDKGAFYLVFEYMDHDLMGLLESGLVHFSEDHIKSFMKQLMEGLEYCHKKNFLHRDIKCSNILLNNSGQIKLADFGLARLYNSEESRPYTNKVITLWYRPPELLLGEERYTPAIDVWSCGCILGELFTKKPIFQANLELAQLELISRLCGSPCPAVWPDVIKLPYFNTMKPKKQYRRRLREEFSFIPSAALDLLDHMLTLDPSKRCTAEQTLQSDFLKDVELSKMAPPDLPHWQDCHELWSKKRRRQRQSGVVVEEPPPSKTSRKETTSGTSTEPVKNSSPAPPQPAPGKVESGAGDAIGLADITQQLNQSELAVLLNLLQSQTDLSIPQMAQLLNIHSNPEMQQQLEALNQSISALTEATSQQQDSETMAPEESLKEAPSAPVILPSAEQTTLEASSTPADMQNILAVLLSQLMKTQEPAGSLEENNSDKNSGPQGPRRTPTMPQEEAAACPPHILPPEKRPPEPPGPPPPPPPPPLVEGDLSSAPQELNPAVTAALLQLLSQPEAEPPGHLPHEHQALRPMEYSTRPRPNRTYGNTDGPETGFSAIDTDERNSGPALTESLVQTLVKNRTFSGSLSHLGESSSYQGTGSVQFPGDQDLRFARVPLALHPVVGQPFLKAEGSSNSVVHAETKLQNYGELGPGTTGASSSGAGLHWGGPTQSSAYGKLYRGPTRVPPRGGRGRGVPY
T1 sequence (O75909 whole entry partner, species assumed): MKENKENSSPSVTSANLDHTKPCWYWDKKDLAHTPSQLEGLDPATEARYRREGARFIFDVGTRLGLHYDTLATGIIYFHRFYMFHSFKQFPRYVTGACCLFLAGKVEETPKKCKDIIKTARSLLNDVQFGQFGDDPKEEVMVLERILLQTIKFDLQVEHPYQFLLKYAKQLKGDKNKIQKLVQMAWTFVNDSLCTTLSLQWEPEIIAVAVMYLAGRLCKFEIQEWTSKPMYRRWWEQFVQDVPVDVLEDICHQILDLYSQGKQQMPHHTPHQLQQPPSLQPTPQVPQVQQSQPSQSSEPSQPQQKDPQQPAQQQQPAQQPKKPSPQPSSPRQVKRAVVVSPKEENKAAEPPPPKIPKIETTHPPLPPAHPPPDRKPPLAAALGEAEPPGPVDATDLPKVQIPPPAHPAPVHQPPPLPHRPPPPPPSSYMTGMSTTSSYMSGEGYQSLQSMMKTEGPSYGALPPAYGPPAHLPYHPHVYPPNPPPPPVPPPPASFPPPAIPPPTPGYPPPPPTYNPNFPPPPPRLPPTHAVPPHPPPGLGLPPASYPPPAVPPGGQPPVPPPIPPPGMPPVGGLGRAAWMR
Description: MDA-MB-231 cells were dispensed into a 96-well plate at 100 µL of cell suspension per well using L-15 (Invitrogen) medium containing 10 % FBS, followed by overnight incubation in a cell incubator at 37 °C and 0 % CO2. The next day, each Example compound dissolved in DMSO across 9 concentration ranges and a DMSO control group were treated on the MDA-MB-231 cells at 37 °C and 0 % CO2 for 6 hours. After the compound treatment, the medium in the 96-well plate was removed, and 60 µL of a fixing solution (4.0 % paraformaldehyde in PBS) was added to each well, followed by standing for 20 minutes. After removing the fixing solution and washing with PBS, 60 µL of PBS containing 0.1 % Triton X-100 was dispensed into each well, followed by shaking at room temperature for 15 minutes. After washing with PBS, 100 µL of blocking buffer was added, followed by shaking at room temperature for 1 hour. After removing the blocking buffer, primary antibodies, which are RNA polymerase II subunit B1 phospho-Ser2 (1:500, Cell signaling technology) and RNA polymerase II subunit B1 carboxy-terminal domain (1:200, Cell signaling technology), were added at 60 µL per well and reacted overnight at 4 °C. After adding 150 µL of PBS containing 0.1 % Triton X-100 and washing at least twice by shaking at room temperature for 5 minutes, 60 µL of a secondary antibody was added, followed by shaking at room temperature for 1 hour while blocking light. After adding 150 µL of PBS containing 0.1 % Triton X-100 and washing at least twice by shaking at room temperature for 5 minutes, 150 µL of PBS was added again, followed by washing at least twice by shaking at room temperature for 5 minutes. The plate was scanned using a Li-COR Odyssey machine with the wells filled with PBS. IC50 values were calculated by fitting a dose-response curve using a 4-parameter model of Prism (Graphpad) software.

[2] = test system: MDA-MB-231 breast cancer cells; experiment: Proliferation inhibitory activity assay against MDA-MB-231 breast cancer cells; format: cell-based; conditions: Homo sapiens, 72 hours, CellTiter Glo, relative IC50
Description: Experiments were performed using the MDA-MB-231 breast cancer cell line to measure the cell proliferation inhibitory ability of each Example compound. MDA-MB-231 cells were dispensed into a 96-well plate at 100 µL of cell suspension per well using L-15 (Invitrogen) medium containing 10 % FBS, followed by incubation in a cell incubator at 37 °C and 0 % CO2. The next day, each Example compound dissolved and diluted in DMSO across 9 concentration ranges and a DMSO control group were treated on the cells for 72 hours. After the compound treatment was completed, 100 µL of CellTiter Glo (Promega) reagent was added to each well of the 96-well plate, followed by shaking for 10 minutes and standing at room temperature for 10 minutes. Luminescence signals were measured after inserting the 96-well plate into an Envision plate reader (PerkinElmer). Relative IC50 values were calculated by fitting a dose-response curve using XLfit (IDBS Ltd) software.
The breast cancer cell proliferation inhibitory activities of the Example compounds measured by the above method were evaluated according to the following criteria, and the results are presented in Table 13.

CDK12 [3] = biological target: T1, CDK12; experiment: CDK12 kinase inhibitory activity assay (33P-ATP filter binding); format: biochemical; conditions: kinase reaction 120 minutes, 33P-gamma-ATP; read-out: CDK12 IC50
Description: (§1) Before initiating the CDK12 and CDK13 kinase reactions, each Example compound was dissolved and diluted in DMSO as a solvent across 9 concentration ranges at room temperature. The diluted solutions were then incubated with a mixture of kinase and substrate (and cofactors, if required) for 20 minutes. Next, radioisotope-labeled ATP (^33P-gamma-ATP) was added to proceed with the kinase reaction at room temperature for 120 minutes. After the reaction was completed, the reaction mixture was transferred to a filter paper that binds the radioisotope-labeled catalytic product (^33P-substrate). Unreacted ^33P-ATP was removed by washing with 0.75 % phosphoric acid, and then the radioactive phosphorylated substrate remaining on the filter paper was measured. Kinase activity data were expressed as a percentage of the kinase activity remaining in the test sample compared to a DMSO control group. The half-maximal inhibitory concentration (IC50) for each kinase was calculated using Prism (Graphpad) software.

CDK13 = CDK13 (Homo sapiens, UniProt Q14004); experiment: CDK13 kinase inhibitory activity assay (33P-ATP filter binding); format: biochemical
Chain of CDK13 (Q14004 whole entry, species assumed): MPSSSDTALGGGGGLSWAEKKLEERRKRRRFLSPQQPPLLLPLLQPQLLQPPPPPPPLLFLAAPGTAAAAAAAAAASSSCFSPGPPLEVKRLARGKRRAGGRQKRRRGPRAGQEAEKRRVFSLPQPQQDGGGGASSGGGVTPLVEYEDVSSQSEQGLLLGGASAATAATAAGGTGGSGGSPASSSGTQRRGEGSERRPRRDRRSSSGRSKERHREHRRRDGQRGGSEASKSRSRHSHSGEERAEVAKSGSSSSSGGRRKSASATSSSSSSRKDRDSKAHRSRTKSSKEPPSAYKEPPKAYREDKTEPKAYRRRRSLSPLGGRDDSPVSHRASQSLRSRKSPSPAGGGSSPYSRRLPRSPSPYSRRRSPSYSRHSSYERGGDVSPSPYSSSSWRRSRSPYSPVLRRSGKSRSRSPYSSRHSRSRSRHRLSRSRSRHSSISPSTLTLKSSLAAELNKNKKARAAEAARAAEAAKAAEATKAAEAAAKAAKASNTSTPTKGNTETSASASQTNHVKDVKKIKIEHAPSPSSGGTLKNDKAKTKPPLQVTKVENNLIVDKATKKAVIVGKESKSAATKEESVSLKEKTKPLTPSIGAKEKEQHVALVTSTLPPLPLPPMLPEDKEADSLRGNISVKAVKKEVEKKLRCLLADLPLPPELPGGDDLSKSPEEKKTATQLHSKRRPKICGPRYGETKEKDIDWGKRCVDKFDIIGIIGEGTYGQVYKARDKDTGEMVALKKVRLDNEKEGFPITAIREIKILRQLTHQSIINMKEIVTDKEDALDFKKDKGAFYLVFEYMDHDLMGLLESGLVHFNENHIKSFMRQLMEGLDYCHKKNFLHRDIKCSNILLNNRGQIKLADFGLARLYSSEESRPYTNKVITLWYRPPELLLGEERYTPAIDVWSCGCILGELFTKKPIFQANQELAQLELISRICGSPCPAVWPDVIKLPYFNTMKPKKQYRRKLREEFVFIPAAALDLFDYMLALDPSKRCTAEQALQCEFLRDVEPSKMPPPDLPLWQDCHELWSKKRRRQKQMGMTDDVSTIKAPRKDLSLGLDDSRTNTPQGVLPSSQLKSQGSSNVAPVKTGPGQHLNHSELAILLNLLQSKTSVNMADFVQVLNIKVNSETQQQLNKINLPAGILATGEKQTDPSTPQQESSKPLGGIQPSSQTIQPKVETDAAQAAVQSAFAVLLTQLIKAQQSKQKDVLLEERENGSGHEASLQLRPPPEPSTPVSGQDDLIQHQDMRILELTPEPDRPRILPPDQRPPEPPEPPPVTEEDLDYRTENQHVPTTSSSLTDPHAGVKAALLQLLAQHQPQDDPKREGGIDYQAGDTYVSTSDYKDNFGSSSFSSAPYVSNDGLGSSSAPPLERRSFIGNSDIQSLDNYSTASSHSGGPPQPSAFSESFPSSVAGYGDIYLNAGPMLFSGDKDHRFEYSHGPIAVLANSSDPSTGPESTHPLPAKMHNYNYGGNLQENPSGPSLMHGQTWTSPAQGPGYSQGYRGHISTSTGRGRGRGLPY
Chain of CDK13 (O75909 whole entry partner, species assumed): as the sequence (O75909 whole entry partner, species assumed) above
Description: as §1

[4] = kinase reaction 120 minutes, 33P-gamma-ATP, read-out: CDK13 IC50

IC50 (CDK12 [1])	IC50 [2]	IC50 (CDK12 [3])	IC50 (CDK13; [4])	IC50 (CDK13)	Compound
< 300 nM	≤ 50 nM	< 100 nM	< 100 nM		CC(=O)N1CCN(c2cc(NCc3nc4cc(Cl)c(Cl)cc4[nH]3)c3ncc(C(F)(F)F)n3n2)CC1 [Example 51, 1-(4-(8-(((5,6-dichloro-1H-benzo[d]imidazol-2-yl)methyl)amino)-3-(trifluoromethyl)imidazo[1,2-b]pyridazin-6-yl)piperazin-1-yl)ethan-1-one]
< 300 nM	≤ 50 nM	100 to 500 nM	< 100 nM		CC1(O)CN(c2cc(NCc3nc4cc(Cl)c(Cl)cc4[nH]3)c3ncc(C(F)(F)F)n3n2)C1 [Example 52, 1-(8-(((5,6-dichloro-1H-benzo[d]imidazol-2-yl)methyl)amino)-3-(trifluoromethyl)imidazo[1,2-b]pyridazin-6-yl)-3-methylazetidin-3-ol]
< 300 nM	≤ 50 nM	100 to 500 nM	100 to 500 nM		CC1(O)CCN(c2cc(NCc3nc4cc(Cl)c(Cl)cc4[nH]3)c3ncc(C(F)(F)F)n3n2)CC1 [Example 53, 1-(8-(((5,6-dichloro-1H-benzo[d]imidazol-2-yl)methyl)amino)-3-(trifluoromethyl)imidazo[1,2-b]pyridazin-6-yl)-4-methylpiperidin-4-ol]
300 to 3000 nM	50 to 500 nM	< 100 nM	< 100 nM		N#CC1CN(c2cc(NCc3nc4ccc(Cl)c(Cl)c4[nH]3)c3ncc(C(F)(F)F)n3n2)C1 [Example 55, 1-(8-(((6,7-dichloro-1H-benzo[d]imidazol-2-yl)methyl)amino)-3-(trifluoromethyl)imidazo[1,2-b]pyridazin-6-yl)azetidine-3-carbonitrile]
300 to 3000 nM	≤ 50 nM	< 100 nM	< 100 nM		N#CC1CCN(c2cc(NCc3nc4ccc(F)c(F)c4[nH]3)c3ncc(C(F)(F)F)n3n2)CC1 [Example 56, 1-(8-(((6,7-difluoro-1H-benzo[d]imidazol-2-yl)methyl)amino)-3-(trifluoromethyl)imidazo[1,2-b]pyridazin-6-yl)piperidine-4-carbonitrile]
< 300 nM	≤ 50 nM	< 100 nM	< 100 nM		FC(F)(F)c1cnc2c(NCc3nc4cc(Cl)c(Cl)cc4[nH]3)cc(N3CCNCC3)nn12 [Example 57, N-((5,6-dichloro-1H-benzo[d]imidazol-2-yl)methyl)-6-(piperazin-1-yl)-3-(trifluoromethyl)imidazo[1,2-b]pyridazin-8-amine]
< 300 nM	≤ 50 nM	> 500 nM	100 to 500 nM		FC(F)(F)c1cnc2c(NCc3nc4cc(Cl)c(Cl)cc4[nH]3)cc(N3CC(NC4CC4)C3)nn12 [Example 58, 6-(3-(cyclopropylamino)azetidin-1-yl)-N-((5,6-dichloro-1H-benzo[d]imidazol-2-yl)methyl)-3-(trifluoromethyl)imidazo[1,2-b]pyridazin-8-amine]
< 300 nM	≤ 50 nM	100 to 500 nM		100 to 500 nM	N#CC1(O)CN(c2cc(NCc3nc4cc(Cl)c(Cl)cc4[nH]3)c3ncc(C(F)(F)F)n3n2)C1 [Example 59, 1-(8-(((5,6-dichloro-1H-benzo[d]imidazol-2-yl)methyl)amino)-3-(trifluoromethyl)imidazo[1,2-b]pyridazin-6-yl)-3-hydroxyazetidine-3-carbonitrile]
300 to 3000 nM	50 to 500 nM	100 to 500 nM		< 100 nM	OCC1CN(c2cc(NCc3nc4cc(Cl)c(Cl)cc4[nH]3)c3ncc(C(F)(F)F)n3n2)C1 [Example 60, (1-(8-(((5,6-dichloro-1H-benzo[d]imidazol-2-yl)methyl)amino)-3-(trifluoromethyl)imidazo[1,2-b]pyridazin-6-yl)azetidin-3-yl)methanol]
< 300 nM	≤ 50 nM	100 to 500 nM	100 to 500 nM		N#CC1(O)CCN(c2cc(NCc3nc4cc(Cl)c(Cl)cc4[nH]3)c3ncc(C(F)(F)F)n3n2)C1 (centres unmarked) [Example 61, 1-(8-(((5,6-dichloro-1H-benzo[d]imidazol-2-yl)methyl)amino)-3-(trifluoromethyl)imidazo[1,2-b]pyridazin-6-yl)-3-hydroxypyrrolidine-3-carbonitrile]
< 300 nM	50 to 500 nM	100 to 500 nM		100 to 500 nM	O[C@@H]1CCN(c2cc(NCc3nc4cc(Cl)c(Cl)cc4[nH]3)c3ncc(C(F)(F)F)n3n2)C1 [Example 62, (R)-1-(8-(((5,6-dichloro-1H-benzo[d]imidazol-2-yl)methyl)amino)-3-(trifluoromethyl)imidazo[1,2-b]pyridazin-6-yl)pyrrolidin-3-ol]
< 300 nM	50 to 500 nM	100 to 500 nM		< 100 nM	O[C@H]1CCN(c2cc(NCc3nc4cc(Cl)c(Cl)cc4[nH]3)c3ncc(C(F)(F)F)n3n2)C1 [Example 63, (S)-1-(8-(((5,6-dichloro-1H-benzo[d]imidazol-2-yl)methyl)amino)-3-(trifluoromethyl)imidazo[1,2-b]pyridazin-6-yl)pyrrolidin-3-ol]
> 3000 nM	> 500 nM	100 to 500 nM	< 100 nM		O=C(O)C1CN(c2cc(NCc3nc4cc(Cl)c(Cl)cc4[nH]3)c3ncc(C(F)(F)F)n3n2)C1 [Example 64, 1-(8-(((5,6-dichloro-1H-benzo[d]imidazol-2-yl)methyl)amino)-3-(trifluoromethyl)imidazo[1,2-b]pyridazin-6-yl)azetidine-3-carboxylic acid]
< 300 nM	50 to 500 nM	< 100 nM	< 100 nM		NC(=O)C1CN(c2cc(NCc3nc4cc(Cl)c(Cl)cc4[nH]3)c3ncc(C(F)(F)F)n3n2)C1 [Example 65, 1-(8-(((5,6-dichloro-1H-benzo[d]imidazol-2-yl)methyl)amino)-3-(trifluoromethyl)imidazo[1,2-b]pyridazin-6-yl)azetidine-3-carboxamide]
< 300 nM	50 to 500 nM	< 100 nM	< 100 nM		NC(=O)C1CCN(c2cc(NCc3nc4cc(Cl)c(Cl)cc4[nH]3)c3ncc(C(F)(F)F)n3n2)CC1 [Example 67, 1-(8-(((5,6-dichloro-1H-benzo[d]imidazol-2-yl)methyl)amino)-3-(trifluoromethyl)imidazo[1,2-b]pyridazin-6-yl)piperidine-4-carboxamide]
< 300 nM	≤ 50 nM	< 100 nM	< 100 nM		Fc1cc2nc(CNc3cc(N4CCOCC4)nn4c(C(F)(F)F)cnc34)[nH]c2cc1F [Example 70, N-((5,6-difluoro-1H-benzo[d]imidazol-2-yl)methyl)-6-morpholino-3-(trifluoromethyl)imidazo[1,2-b]pyridazin-8-amine]

Compound	IC50 (CDK12 [1])	IC50 [2]	IC50 (CDK12 [3])	IC50 (CDK13; [4])	IC50 (CDK13)
NC(=O)N1CCN(c2cc(NCc3nc4cc(Cl)c(Cl)cc4[nH]3)c3ncc(C(F)(F)F)n3n2)CC1 [Example 66, 4-(8-(((5,6-dichloro-1H-benzo[d]imidazol-2-yl)methyl)amino)-3-(trifluoromethyl)imidazo[1,2-b]pyridazin-6-yl)piperazine-1-carboxamide]	< 300 nM	50 to 500 nM	< 100 nM		< 100 nM
